Measured values from patent US20130280269A1, “Manipulation of HSP70 and IRE1Alpha Protein Interactions” (National University of Ireland, priority 2010, published 2013).

Assays:
PC12 cells [1] = assay: Loss of mitochondrial membrane potential (ΔΨm), TMRE staining and flow cytometry; type: cell-based, Rat; settings: 48 h, thapsigargin 0.25 μM
Description: (§1) FIG. 2. Hsp72 prevents ER stress-induced loss of mitochondrial membrane potential and cytochrome c release. (A) The control (Neo) and Hsp72 expressing (Hsp72) PC12 cells were either untreated (Control) or treated with (0.25 μM) Tg for the indicated time and mitochondrial membrane potential was assessed by TRME staining and flow cytometry. A representative image of three independent experiments is shown. (B) The control (Neo) and Hsp72 expressing (Hsp72) PC12 cells were treated (0.25 μM) Tg for indicated time points. Following treatment cells were incubated with TMRE (100 nM). Mitochondrial membrane potential was monitored by measuring the fluorescence intensity at 582 nm (FL2). Average and error bars represent mean±SD from three independent experiments. (C) The control (Neo) and Hsp72 expressing (Hsp72) PC12 cells were treated with (0.25 μM) Tg for the indicated time. Cytosolic extracts were prepared as described in materials and methods and resolved by SDS-PAGE followed by western blotting using antibodies against Cytochrome c and β-actin.
The effect of Hsp72 on the dissipation of ΔΨm and release of cytochrome c to the cytosol upon exposure to ER stress stimuli was evaluated. To quantify ΔΨm, probe tetramethylrhodamine ethyl ester (TMRE, Molecular Probes), a potentiometric fluorescent dye that incorporates into mitochondria in a ΔΨm-dependent manner, was used. Cells were trypsinized and then were either left untreated or treated with 0.25 μM thapsigargin. The cells were then incubated with TMRE for 30 min in the dark and analyzed by flow cytometry using a FACSCalibur instrument. […] The expression of Hsp72 inhibited the loss of ΔΨm (FIG. 2A). At 48 h, loss of ΔΨm was detected in 80-90% of Neo cells treated with thapsigargin or tunicamycin, respectively (FIG. 2B).

PC12 cells [2] = assay: Release of cytochrome c into the cytosol, western blot of cytosolic extracts; type: cell-based, Rat; settings: 0.25 μM Tg, 24 h
Description: as §1
To further study the involvement of mitochondria in ER stress-induced cell death, the release of cytochrome c into the cytosol was assessed. […]

[3] = molecular target: T1, wild-type Hsp72 (inducible form of Hsp70), stably expressed in PC12 cells (Homo sapiens (Human), UniProt P0DMV8 2-641, limits assumed); assay: co-immunoprecipitation with HA-agarose from Hsp72-expressing PC12 cells, western blot (FIG. 5C)
T1 construct: Expressed from a plasmid (gift of Dr. Tomomi Gotoh) in rat PC12 cells and tested in cell lysates by co-immunoprecipitation; also called Hsp72 WT; inducible Hsp70
Description: FIG. 5. Hsp72 forms a protein complex with IRE1α, and ATPase domain of HSP72 is critical for IRE1α binding. (A) Schematic diagram for IRE1α structure domains and expression constructs. (B) Schematic diagram for Hsp72 structure domains and expression constructs. (C) Hsp72 expressing PC12 cells (Hsp2) were transfected with empty vector (EV) or expression vectors for IRE1α FL-HA or IRE1α ΔC-HA. After 24 h, cells were either left untreated (UT) or treated with (0.25 μM) Tg for 12 h and then the co-precipitation of Hsp72 with IRE1α FL-HA or IRE1α ΔC-HA was evaluated by IP and western blot. (D) PC12 cells expressing the indicated Hsp72 constructs were transfected with IRE1α FL-HA. […] Co-precipitation of wild-type, ΔATPase and ΔEEVD mutant of Hsp72 with IRE1α FL-HA was evaluated by IP and western blot. […] After 48 hr, IRE1α FL-HA was immunoprecipitated and its association with endogenous Hsp72 was assessed by western blot. (F) Endogenous Hsp72 was immunoprecipitated from HEK 293 cells transiently transfected with IRE1α FL-HA expression vector or empty vector (EV), and its association with IRE1α was determined by western blot analysis. […]
Interaction of Hsp72-IRE1α was determined by co-immunoprecipitation assays. […] Protein complexes were extracted by boiling the beads with 2× lane marker buffer and analysed by western blotting as described above using the primary antibody IRE1α (Cell Signalling Cat#3294S). […]

T1 sequence (P0DMV8 2-641 limits assumed): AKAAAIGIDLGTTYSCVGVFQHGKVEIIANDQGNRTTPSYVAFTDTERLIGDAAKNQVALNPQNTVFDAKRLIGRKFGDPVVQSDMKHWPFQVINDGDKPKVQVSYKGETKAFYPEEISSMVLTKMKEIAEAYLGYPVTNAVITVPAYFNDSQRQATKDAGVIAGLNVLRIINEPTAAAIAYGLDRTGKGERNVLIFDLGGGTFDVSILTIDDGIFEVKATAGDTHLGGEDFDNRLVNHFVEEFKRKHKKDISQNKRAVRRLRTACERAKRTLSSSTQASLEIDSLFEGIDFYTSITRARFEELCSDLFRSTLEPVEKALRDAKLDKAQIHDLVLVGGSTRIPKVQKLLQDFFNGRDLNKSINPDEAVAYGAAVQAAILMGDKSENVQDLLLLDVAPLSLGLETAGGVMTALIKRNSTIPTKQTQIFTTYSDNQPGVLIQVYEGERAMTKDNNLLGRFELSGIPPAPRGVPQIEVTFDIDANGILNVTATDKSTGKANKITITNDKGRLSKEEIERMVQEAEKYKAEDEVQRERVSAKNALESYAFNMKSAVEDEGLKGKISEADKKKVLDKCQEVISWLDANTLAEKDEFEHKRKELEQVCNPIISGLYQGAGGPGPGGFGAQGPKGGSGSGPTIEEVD

binding result [3] | Molecule | loss of ΔΨm, cells (PC12 cells [1]; Hsp72 expressing PC12 cells) | loss of ΔΨm, cells (PC12 cells [1]; control (Neo) PC12 cells) | release of cytochrome c induced by thapsigargin (PC12 cells [2]; Hsp72 expressing PC12 cells, compared with Neo cells) | release of cytochrome c from mitochondria to the cytoplasm (PC12 cells [2]; control (Neo) PC12 cells)
 | C/C=C(/C)C(=O)O[C@H]1C(C)=C2[C@H]([C@@H]1OC(=O)CCCCCCC)[C@@](C)(OC(C)=O)C[C@H](OC(=O)CCC)[C@@]1(O)[C@H]2OC(=O)[C@@]1(C)O [thapsigargin] | 50% | 80% | significantly reduced | triggered release of cytochrome c
 | tunicamycin | 50% | 90% |  | 
no binding | IRE1α ΔC-HA (enzyme, HA-tagged IRE1α lacking the cytosolic C-terminal region; also called IRE1α DC-HA; not shown: HA tag) IFGSTSTVTLPETLLFVSTLDGSLHAVSKRTGSIKWTLKEDPVLQVPTHVEEPAFLPDPNDGSLYTLGSKNNEGLTKLPFTIPELVQASPCRSSDGILYMGKKQDIWYVIDLLTGEKQQTLSSAFADSLCPSTSLLYLGRTEYTITMYDTKTRELRWNATYFDYAASLPEDDVDYKMSHFVSNGDGLVVTVDSESGDVLWIQNYASPVVAFYVWQREGLRKVMHINVAVETLRYLTFMSGEVGRITKWKYPFPKETEAKSKLTPTLYVGKYSTSLYASPSMVHEGVAVVPRGSTLPLLEGPQTDGVTIGDKGECVITPSTDVKFDPGLKSKNKLNYLRNYWLLIGHHETPLSASTKMLERFPNNLPKHRENVIPADSEKKSFEEVINLVDQTSENAPTTVSRDVEEKPAHAPARPEAPVDSMLKDMATIILSTFLLIGWVAFIITYPLSMHQQQQLQHQQFQKELEKIQLLQQQQQQLPFH |  |  |  | 
